In assay [1] the target is GR (human) (Homo sapiens (Human), UniProt P04150). The assay is described as follows: Radioligand binding to GR. The conditions noted are these: [3H]dexamethasone, IM-9 cells (cytosol). The method, then:
Radioligand binding assays were performed with the cell extracts and ligands as detailed below. Complete methodology is contained within the cited publications. Kd values were determined by Non-Specific Incubation Detection Method.
GR (human) (agonist radioligand) IM-9 cells (cytosol)
[^3H]dexamethasone 1.5 nM 1.5 nM triamcinolone (10 μM) 6 h 4° C. Scintillation counting (Clark, A. F et al. (1996) Invest. Ophtalmol. Vis. Sci., 37: 805-813).
The results are expressed as a percent of control specific binding measured specific binding*100 control specific binding and as a percent inhibition of control specific binding 100-(measured specific binding*100) control specific binding obtained in the presence of compound.
The IC50 values (concentration causing a half-maximal inhibition of control specific binding) and Hill coefficients (nH) were determined by non-linear regression analysis of the competition curves generated with mean replicate values using Hill equation curve fitting. Y=D+[A−D] 1+(C/C50)nH […]
The inhibition constants (Ki) were calculated using the Cheng Prusoff equation: Ki=[…]
Radioligand binding inhibition and affinity calculations were determined using [^3H]-methyltrienolone, [^3H]-dexamethasone and [^3H]-estradiol for AR, GR and ER, respectively. […]

Assay [2] has as its system androgen dependent signaling (androgen sensitive organs). The assay is described as follows: Hershberger Assay. It counts as in vivo, rat. As for the experimental part: The effect of AR antagonists on androgen dependent signaling in vivo was assessed using the Hershberger assay. In this assay, peripubertal castrated male Sprague-Dawley rats were administered AR antagonists described herein in the presence of testosterone (0.4 mg/kg testosterone propionate) and the weights of androgen dependent organs measured. Dosing was continued for 10 days and measurements taken 24 h after the last dose. The extent of antagonism of AR and consequent inhibition of organ growth was evaluated by comparison to the castration control. Compounds of Formula (I) were dosed orally QD and an endpoint assessment made by change in weight of 5 androgen sensitive organs (ASO): Paired Cowper's Glands (CG), Seminal Vesicles with Fluids and Coagulating Glands (SVCG), Glans Penis (GP), Ventral Prostate (VP) and Levator Ani-Bulbocavernosus Complex (LABC)). According to assay guidelines, statistically significant suppression of ASO is required in 2 of 5 organs for a compound to be classified as an anti-androgen (analysis was performed by t-test/Mann-Whitney).
Unless otherwise stated, compounds defined herein were administered at 30 mg/kg and flutamide (FT), positive control, at 3 mg/kg. All compounds were co-administered with testosterone propionate (TP, 0.4 mg/kg) which was also administered alone, untreated control, (castrated only rats served as the control for complete androgen blockade). A statistically significant change in ASO achieved in at least 2 of 5 organs was indicative of an active compound.

The test system of assay [3] is VCaP cells. The experiment in a line: Prostate Cancer Cell Viability Assay-VCaP. The following applies: Homo sapiens, 120 h, 5 days, CellTiter-Glo. It counts as cell-based. The method, then: VCaP cells were counted and seeded into black 384-well plates with clear bottoms at a concentration of 125,000 cells per mL in phenol red-free DMEM containing 10% Charcoal Stripped Serum. 16 μL of the suspension was added per well and incubated for 48 h to allow the cells to adhere. After 48 hours, a 12 point serial semilog dilution of each compound was added to the cells in 16 μL at a final concentration of 100 μM to 0.0003 μM. The compounds of Formula (I) were also run in antagonist mode using 30 pM R1881 in which 8 μL of the compound was added to the cells followed by 8 μL of R1881. After 5 days of incubation at 37° C., 16 μL Of CellTiter-Glo (Promega) was added to the cells and the relative luminescence units (RLUs) of each well determined using the Envision. The percent stimulation and % inhibition were determined for each sample and plotted using GraphPad Prism.
On the technique in general: ATP-based viability assays read luminescence as a measure of living cells.

Assay [4] deals with AR-VP16 (Homo sapiens, UniProt P10275). The assay is described as follows: AR-VP16 DNA Binding Assay (VP16 WT). The following applies: HepG2, antagonist mode, 90 pM R1881, 48 hours. The format is cell-based. As for the experimental part: HepG2 cells were maintained in EMEM supplemented with 10% FBS. One day before transfection, the media was changed to EMEM with 10% CSS. T-150 flasks were transiently transfected using 120 μL Lipofectamine 2000 (Life Technologies), 24.5 μg AR-VP16 or F876L-VP16 (expression vector) and 49 μg 4×ARE-Luciferase (reporter vector) in OptiMEM and the flasks were incubated overnight. Cells were then trypsinized, counted and resuspended at 500,000 cells/mL. For agonist mode, the compounds were serially diluted and 50 μL of the compound was added per well. 50 μL of the cells were added to each well and incubated for 48 hours. For antagonist mode, a final concentration of 90 pM (VP16 AR) or 1 nM (VP16 F876L) R1881 was added to the plate and incubated for 48 hours. The plates were then assayed using SteadyGlo and read on the Envision. Percent Stimulation and Inhibition were determined and analyzed using GraphPad Prism.

Assay [5] has as its target wild-type Androgen Receptor (AR-wt) (Homo sapiens (Human), UniProt P10275). The assay is described as follows: LNCaP-AR-wt AG reporter assay (agonist mode). The format is cell-based.
The mark [6] stands for this setting: 30 mg/kg orally QD, 10 days, with TP 0.4 mg/kg, castrated rats, mean ± SD (n=6).

These results are taken from patent US10981926B2 (Janssen Pharmaceutica NV, priority 2016, dated 2021).

One may read the IC50 as the concentration at which inhibition is half-maximal.

Sequence of wild-type Androgen Receptor (AR-wt) (P10275 whole entry): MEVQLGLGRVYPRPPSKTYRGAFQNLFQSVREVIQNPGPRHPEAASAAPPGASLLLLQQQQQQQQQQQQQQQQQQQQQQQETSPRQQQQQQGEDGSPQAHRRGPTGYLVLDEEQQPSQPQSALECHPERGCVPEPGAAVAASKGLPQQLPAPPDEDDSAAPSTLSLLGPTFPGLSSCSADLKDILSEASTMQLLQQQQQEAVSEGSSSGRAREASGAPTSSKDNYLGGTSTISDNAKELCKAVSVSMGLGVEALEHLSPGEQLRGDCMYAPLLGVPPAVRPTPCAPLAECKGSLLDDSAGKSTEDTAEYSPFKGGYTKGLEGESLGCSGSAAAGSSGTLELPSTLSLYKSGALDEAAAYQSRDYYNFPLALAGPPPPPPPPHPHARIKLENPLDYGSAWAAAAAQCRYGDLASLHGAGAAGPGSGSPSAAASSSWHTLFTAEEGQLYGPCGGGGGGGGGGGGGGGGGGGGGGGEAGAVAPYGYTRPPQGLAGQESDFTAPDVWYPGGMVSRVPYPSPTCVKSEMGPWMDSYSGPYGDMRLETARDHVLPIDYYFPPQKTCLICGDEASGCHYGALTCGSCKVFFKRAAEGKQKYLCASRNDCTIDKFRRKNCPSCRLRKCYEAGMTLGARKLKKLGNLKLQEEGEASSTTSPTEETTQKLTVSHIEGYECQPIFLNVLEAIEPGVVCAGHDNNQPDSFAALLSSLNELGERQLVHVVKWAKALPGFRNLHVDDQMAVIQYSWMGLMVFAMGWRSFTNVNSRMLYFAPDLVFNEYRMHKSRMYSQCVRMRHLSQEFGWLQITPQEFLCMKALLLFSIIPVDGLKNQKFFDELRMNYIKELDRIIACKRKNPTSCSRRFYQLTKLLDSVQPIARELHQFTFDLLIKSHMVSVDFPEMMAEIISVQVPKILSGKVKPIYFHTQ
Sequence of AR-VP16 (P10275 whole entry, looked up): as the sequence (P10275 whole entry) above
Sequence of GR (human) (P04150 whole entry): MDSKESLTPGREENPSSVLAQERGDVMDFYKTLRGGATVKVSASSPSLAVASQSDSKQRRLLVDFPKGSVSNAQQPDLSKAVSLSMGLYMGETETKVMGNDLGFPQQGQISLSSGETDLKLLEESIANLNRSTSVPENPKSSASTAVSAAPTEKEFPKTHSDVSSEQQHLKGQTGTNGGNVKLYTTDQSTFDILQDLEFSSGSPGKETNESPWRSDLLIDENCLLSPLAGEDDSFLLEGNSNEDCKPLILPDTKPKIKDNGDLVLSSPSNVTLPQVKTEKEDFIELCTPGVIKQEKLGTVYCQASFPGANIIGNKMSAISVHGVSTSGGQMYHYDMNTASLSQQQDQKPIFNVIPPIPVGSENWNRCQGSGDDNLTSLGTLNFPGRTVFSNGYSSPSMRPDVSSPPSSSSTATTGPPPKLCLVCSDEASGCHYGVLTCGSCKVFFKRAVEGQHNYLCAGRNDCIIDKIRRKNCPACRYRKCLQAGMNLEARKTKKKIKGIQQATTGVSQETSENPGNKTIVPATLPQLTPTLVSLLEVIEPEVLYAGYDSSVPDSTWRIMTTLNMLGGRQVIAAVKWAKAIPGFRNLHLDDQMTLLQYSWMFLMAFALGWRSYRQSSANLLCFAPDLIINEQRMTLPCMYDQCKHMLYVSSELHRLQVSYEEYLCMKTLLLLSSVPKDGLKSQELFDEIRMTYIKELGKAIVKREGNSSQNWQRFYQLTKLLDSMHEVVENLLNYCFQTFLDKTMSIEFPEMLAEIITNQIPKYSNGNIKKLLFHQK

For `N#Cc1ncc(N2C(=O)C3(CCC3)N(c3ccc(OC4CCNCC4)nc3)C2=S)cc1C(F)(F)F` [Cpd 43, 5-[5-oxo-8-[6-(4-piperidyloxy)-3-pyridyl]-7-thioxo-6,8-diazaspiro[3.4]octan-6-yl]-3-(trifluoromethyl)pyridine-2-carbonitrile], the IC50 was more than 30 µM in assay [1], 0.27 µM in assay [3] and 7.75 µM in assay [4]. Also, the “ASO Organ Growth (% of TP control) SVCG” value in assay [2] (setting [6]) is 26.0 ± 17.8 % of TP control. The “ASO Organ Growth (% of TP control) VP” value in assay [2] (setting [6]) is recorded as 24.1 ± 48.1 % of TP control. Besides, the “Reduction in ASO versus TP control” value in assay [2] (all 5 organs, p≤0.05, 30 mg/kg) was “significant reduction”. Also, the EC50 in assay [5] (agonist mode, pEC50 = −Log10(EC50 in Molar), read-out: LNCaP-AR-wt AG pEC50 (converted)) is more than 15.1 µM. Further, in assay [5] (maximum % stimulation (agonist response) over the tested concentration range), the “LNCaP-AR-wt AG MAX % Stim” value is −0.1%.
